Here are results for 6 molecules from patent publication US20070020196A1, “Inhalant formulation containing sulfoalkyl ether cyclodextrin and corticosteroid prepared from a unit dose suspension” (priority 2003, published 2007).

Series [1] can be described thus: Molar ratio SAE-CD:corticosteroid at saturated solubility (phase solubility binding study). The format is physicochemical.
A short description of series [2]: Solubility of selected steroids enhanced by cyclodextrins (phase solubility). Conditions: thermodynamic from solid.
The nature of series [3]: Stability of budesonide R- and S-isomers with and without SBE7-β-CD (Example 13). The format is physicochemical. The protocol: The inventors have also discovered that SAE-CD is capable of stabilizing the isomers of budesonide to different extents. A study to determine if SBE7-β-CD stabilized budesonide solutions and if it preferentially stabilized one isomer was conducted according to Example 13. FIG. 11 is a semi-log plot of the % of initial concentration at each time point for the samples stored at 60 ° C. Loss of budesonide was first order at each temperature.
Solutions of budesonide with and without SBE7-β-CD were prepared at two different pHs (4 and 6) and stored at 2 different temperatures (60° C. and 80° C.). Citrate buffers (50 mM) at each pH value were prepared by mixing differing portions of 50 mM citric acid and 50 mM sodium citrate (tribasic, dihydrate) solutions. To achieve a concentration of budesonide in the buffers without SBE7-β-CD sufficient for accurate measurement, the budesonide was dissolved first in 100% ethyl alcohol. An aliquot of the ethanol/budesonide solution was then added drop-wise with stirring to each buffer solution. The theoretical budesonide concentration was 100 μg/mL with a final ethanolic content of 5% in each buffer. All solution preps and procedures involving budesonide were done in a darkened room under red light. After shaking solutions for 24 hours, both buffer solutions were filtered through Millipore Millex-GV 0.22 μm syringe filters to remove any solid that had precipitated (no significant amounts observed) from the solutions. The final budesonide concentration was about 50 μg/mL. Both the pH 4 and 6 solutions were split in two, and solid SBE7-β-CD was added to one of the portions to create solutions with and without 1% w/v SBE7-β-CD at each pH. Each solution was aliquoted into individual amber vials. They were then placed in ovens at 60° C. and 80° C. Sample vials were removed from the ovens and analyzed by HPLC at 0, 96, 164, and 288 hours. The HPLC assay conditions are summarized below.

[4] abbreviates: aqueous cyclodextrin solution, aqueous with cosolvent or surfactant or cyclodextrin, Solubility of steroid, (SBE)6.1 γ-CD 0.04 M.
Setting [5] is: aqueous cyclodextrin solution, aqueous with cosolvent or surfactant or cyclodextrin, Solubility of steroid, (SBE)6.1 γ-CD 0.08 M.
The mark [6] stands for this setting: aqueous cyclodextrin solution, aqueous with cosolvent or surfactant or cyclodextrin, Solubility of steroid, (SBE)6.7 β-CD 0.0465 M.
The mark [7] stands for this setting: aqueous cyclodextrin solution, aqueous with cosolvent or surfactant or cyclodextrin, Solubility of steroid, (SBE)6.7 β-CD 0.0950 M.
Setting [8] is: aqueous cyclodextrin solution, aqueous with cosolvent or surfactant or cyclodextrin, Solubility of steroid, γ-CD 0.035 M.
[9] abbreviates: aqueous cyclodextrin solution, aqueous with cosolvent or surfactant or cyclodextrin, Solubility of steroid, γ-CD 0.1 M.
The mark [10] stands for this setting: aqueous cyclodextrin solution, aqueous with cosolvent or surfactant or cyclodextrin, [Steroid] solubility, (SBE)6.1 γ-CD (0.04 M).
Where [11] appears, read: aqueous cyclodextrin solution, aqueous with cosolvent or surfactant or cyclodextrin, [Steroid] solubility, Captisol (0.04 M).
Setting [12] is: water, Solubility of steroid, H2O, no CD.
[13] abbreviates: water, [Steroid] Intrinsic Solubility (in H2O), in H2O.
[14] abbreviates: aqueous cyclodextrin solution, aqueous with cosolvent or surfactant or cyclodextrin, Solubility of steroid, (SBE)5.2 γ-CD 0.1 M.
Where [15] appears, read: aqueous cyclodextrin solution, aqueous with cosolvent or surfactant or cyclodextrin, Solubility of steroid, (SBE)7 α-CD 0.04 M.
The mark [16] stands for this setting: aqueous cyclodextrin solution, aqueous with cosolvent or surfactant or cyclodextrin, Solubility of steroid, (SBE)7 α-CD 0.08 M.
Setting [17] is: aqueous cyclodextrin solution, aqueous with cosolvent or surfactant or cyclodextrin, Solubility of steroid, (SBE)9.7 γ-CD […].
[18] abbreviates: aqueous cyclodextrin solution, aqueous with cosolvent or surfactant or cyclodextrin, Solubility of steroid, (SPE)5.4 γ-CD 0.04 M.
Where [19] appears, read: aqueous cyclodextrin solution, aqueous with cosolvent or surfactant or cyclodextrin, Solubility of steroid, (SPE)5.4 γ-CD 0.08 M.
[20] abbreviates: aqueous cyclodextrin solution, aqueous with cosolvent or surfactant or cyclodextrin, Solubility of steroid, (SPE)7 β-CD 0.04 M.
Where [21] appears, read: aqueous cyclodextrin solution, aqueous with cosolvent or surfactant or cyclodextrin, Solubility of steroid, (SPE)7 β-CD 0.08 M.
Setting [22] is: aqueous cyclodextrin solution, aqueous with cosolvent or surfactant or cyclodextrin, Solubility of steroid, α-CD 0.08 M.
The mark [23] stands for this setting: aqueous cyclodextrin solution, aqueous with cosolvent or surfactant or cyclodextrin, Solubility of steroid, β-CD 0.015M.

Consider `CC1(C)O[C@@H]2C[C@H]3[C@@H]4CCC5=CC(=O)C=C[C@]5(C)[C@@]4(F)[C@@H](O)C[C@]3(C)[C@]2(C(=O)CO)O1` [Triamcinolone acetonide, triamcinolone acetonide], for which the “Approximate Molar Ratio at Saturated Solubility of Corticosteroid (SAE-CD: corticosteroid)” value (“Approximate Molar Ratio” below) in series [1] (SAE-β-CD) is given as roughly 9. Besides, the solubility in series [2] (setting [4]) was found to be 10600 µM; in series [2] (setting [5]) it was 23900 µM; in series [2] (setting [6]), 4570 µM; in series [2] (setting [7]), 10200 µM; in series [2] (setting [8]), 1980 µM; in series [2] (setting [9]), 1390 µM. The solubility in series [2] (setting [10]) worked out at 10600 µM; in series [2] (setting [11]), 4570 µM; in series [2] (setting [12]) it was 35.6 µM; in series [2] (setting [13]), 35.6 µM.

As for `CCC(=O)O[C@]1(C(=O)SCF)[C@H](C)C[C@H]2[C@@H]3C[C@H](F)C4=CC(=O)C=C[C@]4(C)[C@@]3(F)[C@@H](O)C[C@@]21C` [Fluticasone propionate, fluticasone propionate], the figures for the “Approximate Molar Ratio” value in series [1] (SAE-α-CD), in series [1] (SAE-β-CD) and in series [1] (SAE-γ-CD) were roughly 501, roughly 797 and roughly 51, respectively. In addition, the solubility in series [2] (aqueous cyclodextrin solution, aqueous with cosolvent or surfactant or cyclodextrin, Solubility of steroid, (SBE)2.4 β-CD 0.04 M) is 17 µM; in series [2] (aqueous cyclodextrin solution, aqueous with cosolvent or surfactant or cyclodextrin, Solubility of steroid, (SBE)2.4 β-CD 0.08 M), 24.6 µM; in series [2] (aqueous cyclodextrin solution, aqueous with cosolvent or surfactant or cyclodextrin, Solubility of steroid, (SBE)5.2 γ-CD 0.04 M), 791 µM; in series [2] (setting [14]), 2150 µM; in series [2] (setting [4]), 518 µM; in series [2] (setting [5]), 1210 µM. Moreover, the solubility in series [2] (setting [6]) amounted to 54.1 µM; in series [2] (setting [7]) it was 79.9 µM; in series [2] (setting [15]) it was 83.7 µM; in series [2] (setting [16]), 114 µM; in series [2] (aqueous cyclodextrin solution, aqueous with cosolvent or surfactant or cyclodextrin, Solubility of steroid, (SBE)9.7 γ-CD 0.04 M), 545 µM; in series [2] (setting [17]) it was 1030 µM. Besides, the solubility in series [2] (setting [18]) is 717 µM; in series [2] (setting [19]), 1400 µM; in series [2] (setting [20]), 10.5 µM; in series [2] (setting [21]) it was 21.2 µM; in series [2] (setting [8]) it was 735 µM; in series [2] (setting [9]), 221 µM. Besides, the solubility stood at 518 µM in series [2] (setting [10]), 54.1 µM in series [2] (setting [11]), 3.9 µM in series [2] (setting [12]) and 3.9 µM in series [2] (setting [13]).

Take `CCC[C@@H]1O[C@@H]2C[C@H]3[C@@H]4CCC5=CC(=O)C=C[C@]5(C)[C@H]4[C@@H](O)C[C@]3(C)[C@]2(C(=O)CO)O1` (single isomer, unassigned) [R-isomer]: the “With/without CAPTISOL ratio of rate constants” value stood at 0.547 in series [3] (pH 4, 60° C.); 0.607 in series [3] (pH 4, 80° C.); 0.385 in series [3] (pH 6, 60° C.); 0.529 in series [3] (pH 6, 80° C.). In addition, the “Pseudo 1st Order Rate constant” value in series [3] (pH 4 no CAPTISOL, 60° C.) was 0.00109 h⁻¹; in series [3] (pH 4 no CAPTISOL, 80° C.), 0.003704 h⁻¹; in series [3] (pH 4 w/ CAPTISOL, 60° C.), 0.000597 h⁻¹; in series [3] (pH 4 w/ CAPTISOL, 80° C.), 0.00225 h⁻¹; in series [3] (pH 6 no CAPTISOL, 60° C.) it was 0.00432 h⁻¹; in series [3] (pH 6 no CAPTISOL, 80° C.) it was 0.0138 h⁻¹. Further, the “Pseudo 1st Order Rate constant” value in series [3] (pH 6 w/ CAPTISOL, 60° C.) was determined as 0.001661 h⁻¹; in series [3] (pH 6 w/ CAPTISOL, 80° C.) it was 0.00732 h⁻¹.

On to `C[C@@H]1C[C@H]2[C@@H]3CCC4=CC(=O)C=C[C@]4(C)[C@@]3(Cl)[C@@H](O)C[C@]2(C)[C@@]1(O)C(=O)CCl` [Mometasone, mometasone], for which the entries for the “Approximate Molar Ratio” value in series [1] (SAE-α-CD) and in series [1] (SAE-β-CD) were roughly 73 and roughly 33, respectively. Also, the solubility was found to be 8890 µM in series [2] (setting [14]); 8410 µM in series [2] (setting [4]); 14200 µM in series [2] (setting [5]); 1220 µM in series [2] (setting [6]); 2260 µM in series [2] (setting [7]); 550 µM in series [2] (setting [15]). The solubility in series [2] (setting [16]) is 1170 µM; in series [2] (setting [17]), 8900 µM; in series [2] (setting [19]), 14700 µM; in series [2] (setting [20]) it was 1220 µM; in series [2] (setting [21]), 2230 µM; in series [2] (aqueous cyclodextrin solution, aqueous with cosolvent or surfactant or cyclodextrin, Solubility of steroid, α-CD 0.04 M) it was 84 µM. The solubility was 285 µM in series [2] (setting [22]), 129 µM in series [2] (setting [23]), 27.1 µM in series [2] (setting [8]) and 0.9 µM in series [2] (setting [9]).

For `C[C@@H]1C[C@H]2[C@@H]3CCC4=CC(=O)C=C[C@]4(C)[C@@]3(Cl)[C@@H](O)C[C@]2(C)[C@@]1(OC(=O)c1ccco1)C(=O)CCl` [Mometasone furoate, mometasone furoate], the “Approximate Molar Ratio” value was roughly 141 in series [1] (SAE-α-CD), roughly 274 in series [1] (SAE-β-CD) and roughly 101 in series [1] (SAE-γ-CD). Moreover, the solubility turned out to be 939 µM in series [2] (setting [14]); 415 µM in series [2] (setting [4]); 929 µM in series [2] (setting [5]); 164 µM in series [2] (setting [6]); 311 µM in series [2] (setting [7]); 301 µM in series [2] (setting [15]). Moreover, the solubility was found to be 355 µM in series [2] (setting [16]); 940 µM in series [2] (setting [17]); 287 µM in series [2] (setting [18]); 513 µM in series [2] (setting [19]); 72.3 µM in series [2] (setting [20]); 108 µM in series [2] (setting [21]). Also, the solubility worked out at 2.7 µM in series [2] (setting [22]); 13.6 µM in series [2] (setting [23]); 141 µM in series [2] (setting [8]); 658 µM in series [2] (setting [9]); 415 µM in series [2] (setting [10]); 164 µM in series [2] (setting [11]). The solubility in series [2] (setting [12]) and in series [2] (setting [13]) was 18.2 µM throughout.

Regarding `CCC[C@H]1O[C@@H]2C[C@H]3[C@@H]4CCC5=CC(=O)C=C[C@]5(C)[C@H]4[C@@H](O)C[C@]3(C)[C@]2(C(=O)CO)O1` (single isomer, unassigned) [S-isomer], the “With/without CAPTISOL ratio of rate constants” value is 0.323 in series [3] (pH 4, 60° C.); 0.491 in series [3] (pH 4, 80° C.); 0.193 in series [3] (pH 6, 60° C.); 0.384 in series [3] (pH 6, 80° C.). Also, the “Pseudo 1st Order Rate constant” value came out at 0.0037 h⁻¹ in series [3] (pH 4 no CAPTISOL, 60° C.); 0.00131 h⁻¹ in series [3] (pH 4 no CAPTISOL, 80° C.); 0.00012 h⁻¹ in series [3] (pH 4 w/ CAPTISOL, 60° C.); 0.000644 h⁻¹ in series [3] (pH 4 w/ CAPTISOL, 80° C.); 0.001872 h⁻¹ in series [3] (pH 6 no CAPTISOL, 60° C.); 0.00661 h⁻¹ in series [3] (pH 6 no CAPTISOL, 80° C.). For the same molecule, the “Pseudo 1st Order Rate constant” value in series [3] (pH 6 w/ CAPTISOL, 60° C.) amounted to 0.000361 h⁻¹; in series [3] (pH 6 w/ CAPTISOL, 80° C.) it was 0.00254 h⁻¹.

What is called solubility is how much of the substance goes into solution per volume.
